Paper PMC7076710, “Synthesis, Identification, and Structure–Activity Relationship Analysis of GATA4 and NKX2-5 Protein–Protein Interaction Modulators” (Journal of Medicinal Chemistry, 2019)
Where two headings read alike, the source gives them in different places.

Columns and labels:
Format in all cases: cell-based
[1] = molecular target: T1, NKX2-5 transcriptional activity (Mus musculus, UniProt P42582); test: NKX2-5 luciferase reporter assay (3xNKE reporter, COS-1 cells); conditions: COS-1; for activity at 3 µM: read-out: NKX.3µM; for activity at 10 µM: read-out: NKX.10µM
T1 construct: expressed in transfected cells; host or cells: COS-1
T1 sequence (P42582 whole entry): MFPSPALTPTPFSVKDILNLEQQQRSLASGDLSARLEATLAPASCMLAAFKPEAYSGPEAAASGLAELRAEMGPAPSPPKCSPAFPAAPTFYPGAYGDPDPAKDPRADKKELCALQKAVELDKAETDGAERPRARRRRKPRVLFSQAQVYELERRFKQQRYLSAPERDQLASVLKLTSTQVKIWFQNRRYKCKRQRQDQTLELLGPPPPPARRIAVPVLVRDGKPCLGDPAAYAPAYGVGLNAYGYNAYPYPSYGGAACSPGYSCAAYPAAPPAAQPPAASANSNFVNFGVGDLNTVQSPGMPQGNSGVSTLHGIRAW

[2] = molecular target: T2, GATA4 transcriptional activity (Mus musculus, UniProt Q08369); test: GATA4 luciferase reporter assay (tandem GATA-site reporter, COS-1 cells); conditions: for activity at 3 µM / activity at 10 µM: COS-1
T2 construct: expressed in transfected cells; host or cells: COS-1
T2 sequence (Q08369 whole entry): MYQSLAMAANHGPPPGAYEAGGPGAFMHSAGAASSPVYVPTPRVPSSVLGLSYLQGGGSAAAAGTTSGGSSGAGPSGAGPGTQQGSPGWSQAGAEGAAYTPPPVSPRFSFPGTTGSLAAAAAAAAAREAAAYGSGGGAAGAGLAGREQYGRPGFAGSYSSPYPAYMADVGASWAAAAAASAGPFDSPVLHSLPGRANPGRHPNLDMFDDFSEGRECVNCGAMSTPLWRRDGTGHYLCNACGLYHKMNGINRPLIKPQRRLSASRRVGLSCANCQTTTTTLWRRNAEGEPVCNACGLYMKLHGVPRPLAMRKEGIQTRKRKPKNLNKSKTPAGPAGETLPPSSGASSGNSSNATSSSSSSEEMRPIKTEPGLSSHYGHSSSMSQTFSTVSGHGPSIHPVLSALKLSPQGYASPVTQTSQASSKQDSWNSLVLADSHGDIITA

COS-1 cells [3] = test: MTT assay (cell viability); conditions: for MTT.1µM / MTT.3µM / MTT.10µM / MTT.30µM: cell viability; for toxicity class in the MTT assay: 24-h exposure, classified at 10 μM
Description: (§1) To investigate the toxicity as a potential cause of decreased or increased activity in luciferase reporter gene assays, we tested a set of 40 active compounds in the COS-1 cell line used for the luciferase assays. Concentration-dependent toxic effects were investigated using the lactate dehydrogenase (LDH) assay to detect necrosis and the 3-(4,5-dimethylthiazol-2-yl)-2,5-diphenyltetrazolium bromide (MTT) assay as a measure of cell viability. […] For the data analysis, compounds were classified as toxic (Figures 5 and 7) if they induced a >10% decrease in cell viability in the MTT assay at the concentration of 10 μM. The most toxic compounds (35a, 35d, 54, 58, and 63–65) in the MTT assay all contained a phenyl substituent in the southern part ring, while the ortho-nitrophenyl-derivative 39g and the phenyl-substituted thiophene 47t were nontoxic. Higher flexibility in the central parts of the ethers (35a, 35d) and N-acylated amines (58, 64) might contribute to their toxicity, because less rigid compounds are more likely to have affinity to various biological targets. Such interactions can cause toxicity. To confirm and validate the results from MTT assays, we tested three nontoxic (2, 47s, and 72) and three toxic (1, 35a, and 58) compounds in a cell viability assay measuring intracellular ATP content.
(§2) Figure 5 Effects of selected compounds on COS-1 cell viability. (A) Compound-induced necrosis was quantified with the LDH assay after a 24-h compound exposure. The data are presented as cytotoxicity percentage (% of maximal LDH release). (B) Cell viability was analyzed with the MTT assay after a 24-h compound exposure. (A,B) The data are means from 2–3 independent experiments with 3 replicate wells in each and are presented as % of control (vehicle-treated cells). The compounds have been grouped on the basis of the structure of the central part: a, amide; b, ether; c, N-acylated amine; d, amine; and e, imine. (C) The effects of selected compounds on cell viability as determined by ATP content after a 24-h compound exposure. The data are mean + SEM from three independent experiments and are presented as % of vehicle-treated cells.
(§3) For toxicity screening, COS-1 cells were cultured in DMEM (Sigma-Aldrich, Steinheim, Germany) supplemented with 10% fetal bovine serum, 100 U/mL penicillin, and 100 μg/mL streptomycin (all from Gibco, Thermo Scientific) at 37 °C with 5% CO2. The cells were plated on 96-well plates at 10 000 cells/well and exposed to test compounds at a concentration range of 1–30 μM on the following day. After a 24-h compound treatment, lactate dehydrogenase (LDH) and 3-(4,5-dimethylthiazol-2-yl)-2,5-diphenyltetrazolium bromide (MTT) assays were carried out as described previously.[48] Briefly, LDH activity was determined from 50 μL samples of cell culture medium, to which 50 μL of substrate solution [1.3 mM β-nicotinamide-adenine dinucleotide, 660 μM iodonitrotetrazolium, 54 mM L(+)-lactic acid, and 280 μM phenazine methosulfate in 0.2 M Tris-HCl, pH 8.2, all from Sigma-Aldrich] was added, and the plate was incubated for 30 min at room temperature. The reaction was stopped with acetic acid (final concentration 333 mM), and absorbance was measured at 490 nm. The absorbance values of the samples were normalized to maximal LDH release and spontaneous LDH release determined on the same plate. Mitochondrial metabolic activity was quantified by incubating the cells with 0.5 mg/mL MTT (from Sigma-Aldrich) for 2 h at 37 °C with 5% CO2, whereafter culture medium was removed and formazan crystals were dissolved in DMSO. The absorbance was measured at 550 nm, and absorbance at 650 nm was subtracted as background.

COS-1 cells [4] = test: LDH assay (necrosis)
Description: as §1, §2, §3

[5] = molecular target: T3, GATA4–NKX2-5 transcriptional synergy (Mus musculus, UniProt P42582+Q08369); test: GATA4–NKX2-5 transcriptional synergy luciferase reporter assay (3xNKE reporter, COS-1 cells); conditions: COS-1
T3 construct: expressed in transfected cells; host or cells: COS-1
T3 sequence (Q08369 whole entry): as above
T3 sequence (P42582 whole entry): as the sequence (P42582 whole entry) above

[6] = luciferase reporter activity relative to control
[7] = luciferase reporter activity, % of control

| SMILES | activity at 3 µM [1, 6] | activity at 3 µM [2, 6] | MTT.1µM (COS-1 cells [3]) | MTT.3µM (COS-1 cells [3]) | MTT.10µM (COS-1 cells [3]) | MTT.30µM (COS-1 cells [3]) | LDH.1µM (COS-1 cells [4]) | LDH.3µM (COS-1 cells [4]) | LDH.10µM (COS-1 cells [4]) | LDH.30µM (COS-1 cells [4]) | activity at 3 µM [5, 6] | further results |
| --- | --- | --- | --- | --- | --- | --- | --- | --- | --- | --- | --- | --- |
| CC(=O)COC(=O)c1ccc(OCc2c(-c3ccccc3)noc2C)cc1 [Compound 35d] | 56.8% | 65.3% | 81.99 | 73.26 | 64.91 | 61.12 | -0.61 | -0.5 | -0.15 | -0.05 | 51.3% | toxicity class in the MTT assay (COS-1 cells [3]): most toxic |
| CCN(CC)c1ccc(NC(=O)c2c(-c3ccncc3)noc2C)cc1 [Compound 39c] | 100% | 94% | 105.77 | 106.28 | 90.58 | 90.91 | 0.58 | 0.49 | -0.99 | -0.68 | 81.1% | – |
| CCN(CC)c1ccc(NC(=O)c2c(-c3ccc(F)cc3)noc2C)cc1 [Compound 39d, N-[4-(Diethylamino)phenyl]-3-(4-fluorophenyl)-5-methylisoxazole-4-carboxamide] | – | – | – | – | – | – | – | – | – | – | – | activity at 3 µM [1, 7]: 73.3%; activity at 3 µM [2, 7]: 94.4%; MTT.1µM (COS-1 cells [3]; COS-1 cells): 99.41%; MTT.3µM (COS-1 cells [3]; COS-1 cells): 97.69%; MTT.10µM (COS-1 cells [3]; COS-1 cells): 91.72%; MTT.30µM (COS-1 cells [3]; COS-1 cells): 87.25%; LDH.1µM (COS-1 cells [4]; COS-1 cells): 3.12; LDH.3µM (COS-1 cells [4]; COS-1 cells): -0.19; LDH.10µM (COS-1 cells [4]; COS-1 cells): -0.49; LDH.30µM (COS-1 cells [4]; COS-1 cells): 2.51; activity at 3 µM [5, 7]: 61.4% |
| CCN(CC)c1ccc(NC(=O)c2c(-c3ccsc3)noc2C)cc1 [Compound 39m] | 122% | 103% | 102.49 | 98.85 | 88.28 | 82.62 | -0.35 | 0.79 | -1.72 | -1.23 | 87.2% | – |
| CCN(CC)c1ccc(NC(=O)c2cnc3ncccn23)cc1 [Compound 47aa] | 112% | 108% | 101.8 | 103.86 | 99.76 | 95.63 | 1.59 | 1 | 1.6 | -0.51 | 101% | activity at 10 µM [1, 6]: 118%; GATA4 (% of control) Mean ± SD ([2]; 10 μM, COS-1 cells, 24 h): 130 % of control; activity at 10 µM [2, 6]: 132%; activity at 10 µM [5, 6]: 144% |
| CCN(CC)c1ccc(NC(=O)c2cnoc2-c2ccccc2)cc1 [Compound 47d] | 56.3% | 95.2% | 107.01 | 95.86 | 90.87 | 93.95 | 3.03 | 0.88 | -0.44 | 0.42 | 65.4% | – |
| CCN(CC)c1ccc(NC(=O)c2csc(C)c2-c2ccccc2)cc1 [Compound 47t] | 55.2% | 74.4% | 106.87 | 104.76 | 104.28 | 99.24 | 0.5 | 1.08 | 0.5 | 2.38 | 61.5% | toxicity class in the MTT assay (COS-1 cells [3]): nontoxic (nontoxic compounds (cell viability >90%)) |
| CCN(CC)c1ccc(NC(=O)c2csc([N+](=O)[O-])c2)cc1 [Compound 47u] | 37.8% | 28.7% | 105.56 | 102.26 | 97.2 | 88.36 | 7.78 | 6.19 | 2.98 | 1.83 | 32.3% | activity at 10 µM [5, 6]: 24.5% |
| CCN(CC)c1ccc(NC(=O)c2cnc(SC)n2-c2ccc(F)cc2)cc1 [Compound 47z] | 91.1% | 91.4% | 102.53 | 95.99 | 96.05 | 93 | 0.94 | 1.33 | -0.3 | -0.25 | 67.6% | – |
| CCN(CC)c1ccc(NC(=O)c2cc(C)oc2-c2ccccc2)cc1 [Compound 54] | 60.8% | 72.4% | 97.73 | 83.61 | 74.16 | 71.09 | 1.02 | 0.88 | -0.26 | 3.27 | 46% | toxicity class in the MTT assay (COS-1 cells [3]): most toxic; activity at 10 µM [5, 6]: 35.4% |
| CCN(c1ccc(NC(=O)c2c(C)noc2-c2ccccc2)cc1)C(C)C [Compound 63] | 69.7% | 68% | 99.16 | 82.83 | 75.83 | 61.58 | 0.04 | -1.53 | -2.08 | 0.01 | 41.6% | – |
| CC(=O)N(Cc1ccc(N(C)C)cc1)c1c(-c2ccccc2)noc1C [Compound 64] | 62.1% | 59.6% | 98.18 | 84.51 | 77.4 | 65.98 | 0.55 | -0.52 | -0.2 | -0.49 | 40.2% | activity at 10 µM [1, 6]: 44.1% |
| CCN(CC)c1ccc(NC(=O)c2c(C)noc2-c2ccccc2)cc1 [Compound 65] | 53.5% | 90% | 96.79 | 83.46 | 81.39 | 84.64 | 0.39 | -0.82 | -1.85 | -0.07 | 51.9% | activity at 10 µM [2, 6]: 64.2% |
| CCN(CC)c1ccc(NC(=O)c2c(-c3ccccc3)nnn2CCc2ccccc2)cc1 [Compound 71] | 76% | 72.5% | 103.27 | 98.93 | 94.48 | 80.74 | 0.03 | -0.62 | -0.76 | 1.31 | 75.2% | activity at 10 µM [1, 6]: 33.6%; activity at 10 µM [5, 6]: 33% |
